In patent publication US9945845B2, “Methods of screening using amphibians” (priority 2009, dated 2018):
Entries after “also recorded” stand apart in the source; their conditions may differ. Where two headings read alike, the source gives them in different places.

Experiments:
Xenopus embryos = settings: for Lethality: — = no stage of lethality given; for Embr. phen.: embryonic phenotype in the primary screen; for Type of edema Ventral: ‡ = edemas also detected in the gut; for Type of edema Periocular: * = causing bulging eyes, # = bilateral, causing narrow-set eyes
Protocol: 10-μl aliquots of the chemicals were transferred from the mother plates with a liquid handling robot (Aquarius, Tecan) into 96-well tissue culture plates to generate diluted stock plates (2 mM in DMSO; 50 μl final volume). […] Once embryos reached stage 31 (37 hpf), 10-μl aliquots of the diluted chemicals were added to the wells. […] Negative control wells contained embryos in screening medium and 0.1×MMR only. Embryos were treated with the chemicals in a humidified incubator at 23° C. over a timeframe of 4 days. Embryos were manually scored for the presence of edema or other morphological phenotypes using a teaching dissecting microscope (SV6; Carl Zeiss). Two investigators performed separately the scoring daily at stages 39 (56 hpf), 41 (76 hpf), 45 (98 hpf), and 47 (120 hpf). Dead embryos were removed and 100 μl of water was added daily to each well to compensate for fluid evaporation. […] For imaging at the end of the experiments. Xenopus tadpoles were anesthetized with 0.05% tricaine (Sigma #A5040) in 0.1×MMR. Images were captured using a stereomicroscope (SteREO Lumar V12; Carl Zeiss) equipped with a digital camera (AxioCam Color; Carl Zeiss).
Xenopus late tailbud embryos at stage 31 (37 hpf) were selected for compound treatment. […] Embryos were arrayed into 48-well dishes (five per well) and treated with test compounds at a concentration of 20 μM in the presence of 1% DMSO. […] All 48-well dishes also contained replicates of negative controls (1% DMSO). Embryos were monitored daily over a period of four days for edema formation. In addition, drug-induced lethality and other externally visible phenotypes were scored. On average, 320 compounds were screened per week.

[1] = system: blood vessel development and/or lymphangiogenesis in Xenopus embryos; type: in vivo, Xenopus laevis; settings: for blood vessel development phenotype (apj expression, in words): 20 μM from stage 31, fixed at stage 35/36; for ISV phenotype: intersomitic vessels; for ISV phenotype / PCV phenotype / VVN phenotype / Blood vessel phenotype / ALH phenotype / ALS phenotype / PLV phenotype / Lymphatic phenotype: Xenopus embryos; for PCV phenotype: posterior cardinal vein; for VVN phenotype: vitelline vein network; for lymph vessel development phenotype (vegfr3 expression, in words): 20 μM from stage 31, fixed at stage 42; for ALH phenotype: anterior lymph heart; for ALS phenotype: anterior lymph sac; for PLV phenotype: posterior lymph vessels
Protocol: All chemicals were purchased from Sigma and 10-mM stock solutions in DMSO were prepared. Chemicals were used at a final concentration of 20 μM in screening medium to treat homozygous albino Xenopus embryos, which lack natural pigmentation. Chemical treatments of embryos (n=7 per well) was initiated at stage 31 (37 hpf) and terminated at stages 35/36 (50 hpf) or 42 (80 hpf). Embryos were fixed in 4% paraformaldehyde and processed for whole mount in situ hybridization.
Where albino embryos were used, the bleaching step was omitted. Semi-automated whole mount in situ hybridizations were performed using the Biolane HTI machine (Hölle & Hüttner AG, Germany). […] Images were captured using a stereomicroscope (SteREO Lumar V12; Carl Zeiss) equipped with a digital camera (AxioCam Color; Carl Zeiss). Composite figures were organized and labeled using Adobe Photoshop CS2 and Adobe Illustrator CS software.
Edema formation or late-stage lethality may result from excretory system defects, (cardio)vascular and/or lymphatic vascular pathologies. […] Embryos were fixed for in situ hybridization either at stage 35/36 to analyze vasculogenesis and intersomitic vein angiogenesis defects or at stage 42 to evaluate possible defects in lymph vessel development (FIGS. 3-5).

[2] = compounds causing lethality, 20 μM, 1% DMSO, treatment from stage 31, Nieuwkoop & Faber stage
[3] = compounds causing edema, 20 μM, 1% DMSO, treatment from stage 31, scored to stage 47
[4] = onset of edema, 20 μM, 1% DMSO, treatment from stage 31, Nieuwkoop & Faber stage
[5] = compounds causing cytotoxicity, 20 μM, 1% DMSO, treatment from stage 31, Nieuwkoop & Faber stage
[6] = onset of pigmentation defects, 20 μM, 1% DMSO

Clc1ccc(C(c2ccc(Cl)cc2)n2cc[n+](CC(OCc3ccc(Cl)cc3Cl)c3ccc(Cl)cc3Cl)c2)cc1 (stereo not drawn) [Calmidazolium chloride]
Lethality (NF) (Xenopus embryos; [2]): 37/38
blood vessel development phenotype (apj expression, in words) [1]: promoting ectopic, premature angiogenesis; also recorded: ectopic sprouting phenotype was even more pronounced
ISV phenotype [1]: ectopic
PCV phenotype [1]: normal
VVN phenotype [1]: hyperplastic

Cc1cc(N)c2ccccc2[n+]1CCCCCCCCCC[n+]1c(C)cc(N)c2ccccc21.[Cl-].[Cl-] [Dequalinium dichloride, 1,1′-Decamethylenebis(4-aminoquinaldinium) dichloride]
Lethality (NF) (Xenopus embryos; [3]): 39 NF
Type of edema Pericordial (Xenopus embryos; embryonic stage): 39 embryonic stages according to Nieuwkoop and Faber (NF)
Lethality (Xenopus embryos; embryonic stage): 39 embryonic stages according to Nieuwkoop and Faber (NF)
lymph vessel development phenotype (vegfr3 expression, in words) [1]: poorly developed, stunted lymphatics emerging from the ALS and ALH and hypoplastic PLV
Blood vessel phenotype [1]: normal
ALH phenotype [1]: stunted
ALS phenotype [1]: stunted
PLV phenotype [1]: hypoplastic

Cc1ccc(Cl)c(Nc2ccccc2C(=O)[O-])c1Cl.[Na+] [Meclotenamic acid sodium]
Embr. phen. (Xenopus embryos): EDE
ISV phenotype [1]: impaired
PCV phenotype [1]: hypoplastic
VVN phenotype [1]: hypoplastic

CC[C@H](C)C(=O)O[C@H]1CCC=C2C=C[C@H](C)[C@H](CC[C@@H]3C[C@@H](O)CC(=O)O3)[C@H]21 [Mevastatin]
Lethality (NF) (Xenopus embryos; [3]): 45 NF
Embr. phen. (Xenopus embryos): EDE
Type of edema Pericordial (Xenopus embryos; embryonic stage): 35/36
Lethality (Xenopus embryos; embryonic stage): 45 embryonic stages according to Nieuwkoop and Faber (NF)
Type of edema Ventral (Xenopus embryos; embryonic stage): 41/42
Onset (NF) (Xenopus embryos; [4]): 35/36
lymph vessel development phenotype (vegfr3 expression, in words) [1]: lymphangiogenesis was largely suppressed
Blood vessel phenotype [1]: normal
ALH phenotype [1]: impaired
ALS phenotype [1]: impaired
PLV phenotype [1]: hypoplastic

O=C1C(SCCO)=C(SCCO)C(=O)c2ccccc21 [NSC 95397, 2,3-bis[(2-Hydroxyethyl)thio]-1,4-naphthoquinone]
Lethality (NF) (Xenopus embryos; [2]): 40 NF
ISV phenotype [1]: impaired
PCV phenotype [1]: hypoplastic
VVN phenotype [1]: hypoplastic

CC(C)[C@H](CO)Nc1nc(Nc2cccc(Cl)c2)c2ncn(C(C)C)c2n1 [Purvalanol A]
Lethality (NF) (Xenopus embryos; [2]): 41/42
Embr. phen. (Xenopus embryos): LET
blood vessel development phenotype (apj expression, in words) [1]: only interfered with the assembly of the VVN
Lymphatic phenotype [1]: normal
ISV phenotype [1]: normal
PCV phenotype [1]: normal
VVN phenotype [1]: hypoplastic

CN(C)S(=O)(=O)c1ccc2c(c1)C(=Cc1cc3c([nH]1)CCCC3)C(=O)N2 [SU 6656, 2,3-Dihydro-N,N-dimethyl-2-oxo-3-[(4,5,6,7-tetrahydro-1H-indol-2-yl)methylene]-1H-indole-5-sulfonamide]
Lethality (NF) (Xenopus embryos; [3]): 46 NF
Type of edema Pericordial (Xenopus embryos; embryonic stage): 41/42
Type of edema Proctodeal (Xenopus embryos; embryonic stage): 39/40
Type of edema Pronephric (Xenopus embryos; embryonic stage): 39/40
Type of edema Periocular (Xenopus embryos; embryonic stage): 41/42*
Lethality (Xenopus embryos; embryonic stage): 46 embryonic stages according to Nieuwkoop and Faber (NF)
Type of edema Ventral (Xenopus embryos; embryonic stage): 39/40
Onset (NF) (Xenopus embryos; [4]): 39/40
lymph vessel development phenotype (vegfr3 expression, in words) [1]: inhibiting preferentially lymphatic vascular development; also recorded: poorly developed, stunted lymphatics emerging from the ALS and ALH and hypoplastic PLV
Blood vessel phenotype [1]: normal
ALH phenotype [1]: dysplastic
ALS phenotype [1]: stunted
PLV phenotype [1]: hypopiastic

CCN1/C(=C/C(C)=O)Sc2ccc(OC)cc21 [TG003, (Z)-1-(3-Ethyl-5-methoxy-2,3-dihydrobenzothiazol-2-ylidene)-propan-2-one]
Lethality (NF) (Xenopus embryos; [2]): 40 NF

C/C(=C\c1ccc(C(=O)O)cc1)c1ccc2c(c1)C(C)(C)CCC2(C)C [TTNPB]
Lethality (NF) (Xenopus embryos; [3]): 45 NF
Type of edema Proctodeal (Xenopus embryos; embryonic stage): 41/42
Type of edema Pronephric (Xenopus embryos; embryonic stage): 39 embryonic stages according to Nieuwkoop and Faber (NF)
Type of edema Cerebral (Xenopus embryos; embryonic stage, + = cerebral edema extending dorso-anteriorly and displacing the eyes): 41/42+
Lethality (Xenopus embryos; embryonic stage): 45 embryonic stages according to Nieuwkoop and Faber (NF)
Type of edema Ventral (Xenopus embryos; embryonic stage): 41/42
Onset (NF) (Xenopus embryos; [4]): 39 NF

C/C=C(/C)C(=O)O[C@H]1C(C)=C2[C@H]([C@@H]1OC(=O)CCCCCCC)[C@@](C)(OC(C)=O)C[C@H](OC(=O)CCC)[C@@]1(O)[C@H]2OC(=O)[C@@]1(C)O [Thapsigargin]
Lethality (NF) (Xenopus embryos; [5]): 32 NF

CC(C)(C)c1cc(C=C(C#N)C#N)cc(C(C)(C)C)c1O [Tyrphostin A9, [[3,5-bis(1,1-Dimethylethyl)-4-hydroxyphenyl]methylene]-propanedinitrile]
Lethality (NF) (Xenopus embryos; [5]): 32 NF

CC(C)(C)c1cc(C=C(C#N)C(N)=S)cc(C(C)(C)C)c1O [Tyrphostin AG 879, alpha-cyano-(3,5-di-t-butyl-4-hydroxy)thiocinnamide]
Lethality (NF) (Xenopus embryos; [5]): 32 NF

C#C[C@]1(O)CC[C@H]2[C@@H]3CCC4=Cc5nc6nc7ccccc7n6cc5C[C@]4(C)[C@H]3CC[C@@]21C [WIN 62,577, 17-beta-Hydroxy-17-alpha-ethynyl-delta-4-androstano(3,2-b)pyrimido(1,2-a)benzimidazole]
Lethality (NF) (Xenopus embryos; compounds causing pigmentation defects, 20 μM, scored to stage 47): 42 NF
Onset (NF) (Xenopus embryos; [6]): 33/34

COC[C@H]1OC(=O)c2coc3c2[C@@]1(C)C1=C(C3=O)[C@@H]2CCC(=O)[C@@]2(C)C[C@H]1OC(C)=O [Wortmannin from Penicillium funiculosum, Wortmannin]
Lethality (NF) (Xenopus embryos; [5]): 33/34

OCc1ccc(-c2nn(Cc3ccccc3)c3ccccc23)o1 [YC-1, 3-(5′-Hydroxymethyl-2′-fulyl)-1-benzyl indazole]
Embr. phen. (Xenopus embryos): EDE
Onset (NF) (Xenopus embryos; [4]): 45 NF
blood vessel development phenotype (apj expression, in words) [1]: dispersed, punctuated patterns of VVN endothelia
Lymphatic phenotype [1]: normal
ISV phenotype [1]: normal
PCV phenotype [1]: normal
VVN phenotype [1]: hypoplastic

COc1cc(-c2ccc(=O)[nH]n2)ccc1OC(F)F [Zardaverine, 6-(4-Difluoromethoxy-3-methoxyphenyl)-3(2H)-pyridazinone]
Lethality (NF) (Xenopus embryos; [3]): 43 NF
Type of edema Pericordial (Xenopus embryos; embryonic stage): 39/40
Type of edema Pronephric (Xenopus embryos; embryonic stage): 41/42
Lethality (Xenopus embryos; embryonic stage): 43 embryonic stages according to Nieuwkoop and Faber (NF)
Onset (NF) (Xenopus embryos; [4]): 39/40
blood vessel development phenotype (apj expression, in words) [1]: only interfered with the assembly of the VVN
ISV phenotype [1]: normal
PCV phenotype [1]: normal
VVN phenotype [1]: hypoplastic

C[C@]12CC[C@@H]3c4ccc(O)cc4CC[C@H]3[C@@H]1CC[C@@H]2O [beta-Estradiol]
Type of edema Periocular (Xenopus embryos; embryonic stage): 42 # embryonic stages according to Nieuwkoop and Faber (NF)
Onset (NF) (Xenopus embryos; [4]): 42 NF

CC1(C)CCC2=C(O1)c1ccccc1C(=O)C2=O [beta-Lapachone]
Lethality (NF) (Xenopus embryos; [5]): 32 NF

C[C@H](NC(=O)Cc1cc(F)cc(F)c1)C(=O)N[C@H]1N=C(c2ccccc2)c2ccccc2N(C)C1=O [compound E]
edema or other phenotype in compound-treated Xenopus embryos/tadpoles (in words) (Xenopus embryos; 20 μM, 1% DMSO, treatment from stage 31): potently induces edemas

C[C@]12CC[C@H](O)CC1=CC[C@@H]1[C@@H]2CC[C@]2(C)C(=O)CC[C@@H]12 [trans-Dehydroandrosterone, 5-Androsten-3beta.ol-17-one]
Onset (NF) (Xenopus embryos; onset of other phenotypic defects, 20 μM, 1% DMSO): 41/42

Dequalinium analog, C-14 linker
Lethality (NF) (Xenopus embryos; [5]): 32 NF

Ivermectin
Lethality (NF) (Xenopus embryos; [2]): 41/42

R(-)-Propylnorapomorphine hydrochloride
Onset (NF) (Xenopus embryos; [6]): 33/34
